Measured values taken from patent publication US11241448B2, “Methods for cancer therapy” (Millennium Pharmaceuticals, Inc., priority 2014, dated 2022).
Where a name gives a salt, the structure may show the parent alone.

Legend:
[1] = biological target: β1 site of the 20S proteasome (Homo sapiens, UniProt P28072); conditions: at higher concentrations; cited from earlier work
[2] = biological target: receptors; conditions: read-out: IC50 values against receptors; cited from earlier work
[3] = system: multiple myeloma patients who completed induction therapy; assay: Clinical study of oral single-agent ixazomib maintenance therapy; assay type: in vivo, human
Text: These patients completed induction therapy and progressed to the maintenance phase.

[4] = biological target: β2 site of the 20S proteasome (Homo sapiens, UniProt Q99436); conditions: at higher concentrations; cited from earlier work
[5] = system: patients with relapsed, refractory multiple myeloma; assay: Exposure-response logistic regression analyses, phase 1 study of weekly single-agent ixazomib; assay type: in vivo, human; conditions: starting dose 3.0 mg weekly
Text: The methods and results of these analyses are described below.
The metric of exposure (Ex) was AUC per day (derived from individual clearance values using population pharmacokinetics) for both exposure logistic regression analyses Ex/S and Ex/E. Ex/S analysis was done on seven adverse events (AEs): non-hematologic (non-H) (fatigue, rash, peripheral neuropathy, diarrhea) and hematologic (H) (anemia, thrombocytopenia, neutropenia). The non-hematologic adverse events data were categorized into grade≥2 vs. grade≤1 groups while hematologic adverse events data were grouped into grade≥3 vs. grade≤2. The data were categorized in this way as maintenance treatment should have a tolerable adverse events profile and contribute to acceptable quality of life. Different cut-offs were used for hematologic and non-hematologic adverse events because grade 3 hematologic adverse events may have less impact on quality of life and be more manageable than grade 2 non-hematologic adverse events such as diarrhea. For exposure efficacy (Ex/E), data were categorized as: ≥stable disease (SD) vs. progressive disease (PD). Clinical benefit rate including SD achieved in relapsed or refractory patients may be a meaningful predictor of expected response in a maintenance setting. The logistic regression analyses were done using SPLUS software version 8.1.

[6] = system: patients with advanced solid tumors, lymphoma, RRMM, and relapsed or refractory AL amyloidosis; conditions: cited from earlier work
[7] = system: kinases; conditions: read-out: IC50 values against kinases; cited from earlier work
[8] = system: tumor xenografts; conditions: in contrast to bortezomib; cited from earlier work
[9] = in contrast to bortezomib; cited from earlier work
[10] = biological target: β5 proteasome (Homo sapiens, UniProt P28074); conditions: in contrast to bortezomib; cited from earlier work
[11] = upon contact with either plasma or aqueous solutions; cited from earlier work
[12] = of 10 patients who improved during maintenance

In the case of `CC(C)C[C@H](NC(=O)CNC(=O)c1cc(Cl)ccc1Cl)B(O)O` [ixazomib], the “inhibition of activity of the β1 site” value [1] is given as “also inhibits the activity”, the IC50 [2] is given as greater than 10 µM and the “survival of patients who received maintenance” value ([3]; after follow-up of 25.1-33.9 months) is given as “alive”. The “best overall response: complete response (CR) or better, percent of patients” value ([3]; n=21, maintenance therapy) was 52%, the “best overall response: very good partial response (VGPR) or better, percent of patients” value ([3]; n=21, maintenance therapy) was 71% and the “median duration of response” value ([3]; n=21, range 6.7-31.18) was 21.65 months. The “improved response CR to sCR, patients” value [3, 12] was 2/10, the “improved response VGPR to CR, patients” value [3, 12] was 5/10 and the “improved response VGPR to near-CR (nCR), patients” value [3, 12] was 2/10. The “improved response VGPR to stringent complete response (sCR), patients” value [3, 12] was 1/10, the “median time to first response (≥rapid response “PR”)” value ([3]; range 0.92-5.78) was 0.99 months and the “median time to best response” value ([3]; range 1.02-24.74) was 7.46 months. The “inhibition of activity of the β2 site” value [4] was “also inhibits the activity”, the “model-predicted clinical benefit rate (≥SD)” value [5] was roughly 33% and the “model-predicted incidence of grade≥2 diarrhea” value [5] was 19%. The “model-predicted incidence of grade≥2 fatigue” value [5] was 19%, the “model-predicted incidence of grade≥2 rash” value [5] was 16% and the “model-predicted incidence of grade≥3 neutropenia” value [5] was 10%. The “model-predicted incidence of grade≥3 thrombocytopenia” value [5] was 22%, the clinical activity ([6]; advanced solid tumors, lymphoma, RRMM, AL amyloidosis) was “early signs of activity” and the “emerging safety profile / tolerability” value ([6]; clinical studies) was “generally well tolerated”. For the same molecule, the toxicity profile ([6]; clinical studies) was “favorable toxicity profile with low rates of peripheral neuropathy”, the IC50 [7] was greater than 10 µM and the “antitumor activity in tumor xenografts” value [8] was “antitumor activity in a broader range of tumor xenografts”. The tissue penetration [9] was “more prolonged tissue penetration” and the “dissociation rate from the proteasome” value [10] was “faster dissociation rate”.

In the case of `CC(C)C[C@H](NC(=O)CNC(=O)c1cc(Cl)ccc1Cl)B1OC(=O)C(CC(=O)O)(CC(=O)O)O1` [ixazomib citrate], the hydrolysis to ixazomib [11] is given as “rapidly hydrolyzes”.
